The values that follow come from patent publication US8993585B2, “Cyclic amine substituted pyrimidinediamines as PKC inhibitors” (Rigel Pharmaceuticals, Inc., priority 2007, dated 2015).

pIC50: −log10 of the molar value.

The subject of the first assay is Human primary T cells. Nature of the assay: IL-2 ELISA, Human Primary T Cell, Anti-CD3+CD28+ (Example 3). The assay is classed as cell-based. The settings on record: Homo sapiens, T-cell, 24 h, anti-CD3+CD28 stimulation. In outline: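 IL-2 was read by ELISA after stimulation on wells pre-coated with 1 ug/ml αCD3 and 5 μg/ml αCD28. Before this, 100,000 human primary T cells per well spent 1 h at 37 °C with test compound in Yssel's medium. The counter-screen replaced antibody stimulation with PMA (0.5 ng/ml final) and ionomycin (0.1 uM final).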
For `CN1C(C)(C)CC(Nc2nc(Nc3ccc4c(n3)NCCO4)ncc2F)CC1(C)C` [II-24], the pIC50 was 4.95. `CN1C(C)(C)CC(Nc2nc(Nc3cc4c(cc3Br)OC(F)(F)O4)ncc2F)CC1(C)C` [II-122] showed a pIC50 of 5.67. Molecule `CN(C)CCN1C(=O)C(C)(C)Oc2cc(Nc3ncc(F)c(NC4CC(C)(C)N(C)C(C)(C)C4)n3)ccc21` [II-49] gave a pIC50 of 5.91. On the same count and under the same terms, in the case of `CN1C(C)(C)CC(Nc2nc(Nc3ccc4c(c3)CC(=O)NO4)ncc2F)CC1(C)C` [II-3] it was 5.73; in that of `CN1C(C)(C)CC(N(Cc2ccccc2)c2nc(Nc3ccc(N4CCOCC4)c(C(F)(F)F)c3)ncc2F)CC1(C)C` [Compound I-312], 5.77; in that of `CN1C(C)(C)CC(Nc2nc(Nc3ccc4c(c3)OC(C)(C)C(=O)N4CCF)ncc2F)CC1(C)C` [II-80], 6.70. The molecule `CC1(C)CC(Nc2nc(Nc3ccc4c(c3)OC3(CCCC3)O4)ncc2F)CC(C)(C)N1` [II-120] showed a pIC50 of 5.87. `CN1C(C)(C)CC(Nc2nc(Nc3ccc4[nH]ncc4c3)ncc2F)CC1(C)C` [II-38]: the pIC50 is 6.08. `COc1ccc(Nc2ncc(F)c(NC3CC(C)(C)N(CCC(=O)O)C(C)(C)C3)n2)cc1Cl` [Compound I-303] showed a pIC50 of 4.75. Molecule `COc1cc(Nc2ncc(OC)c(NC3CC(C)(C)N(C)C(C)(C)C3)n2)cc(OC)c1` [Compound I-423] had a pIC50 of 5.46. Take `Cc1ccc(C)n1-c1cc(Nc2ncc(F)c(NC3CC(C)(C)N(C)C(C)(C)C3)n2)ccc1OCCN1CCOCC1` [Compound I-439]: the pIC50 was 6.21. In turn, `CCN(CC)C1CCC(Nc2nc(Nc3ccc(N4CCN(C)CC4)c(Cl)c3)ncc2F)CC1` (stereo not shown) [IV-8, N2-[3-Chloro-4-(4-methylpiperazino)]phenyl-N4-(4-diethylamino)cyclohexyl-5-fluoro-2,4-pyrimidinediamine] gave a pIC50 of 5.36. In turn, `COc1cc(Nc2nc(C)cc(NC3CC(C)(C)N(C)C(C)(C)C3)n2)cc(OC)c1` [IV-2] had a pIC50 of 5.50. In the case of `CN1C(C)(C)CC(Nc2nc(Nc3nc4cc(Cl)ccc4o3)ncc2F)CC1(C)C` [II-12], the negative-log IC50 (pIC50) is 5.39. As to `CN1C(C)(C)CC(Nc2nc(Nc3nc4ccc(F)cc4s3)ncc2F)CC1(C)C` [II-131], the negative logarithm of the IC50 (pIC50) was 6.00. In turn, `CCN(CC)C1CCC(Nc2nc(Nc3ccc(N4CCN(S(C)(=O)=O)CC4)c(Cl)c3)ncc2F)CC1` (stereo not shown) [IV-4, N2-[3-Chloro-4-(4-methylsulfonylpiperazino)]phenyl-N4-(4-diethylamino)cyclohexyl-5-fluoro-2,4-pyrimidinediamine] had a negative-log IC50 (pIC50) of 5.15. In the case of `CN1C(C)(C)CC(Nc2nc(Nc3nc(-c4ccc5c(c4)OCCO5)cs3)ncc2F)CC1(C)C` [II-132], the pIC50 was 6.08.

Take `CN1C(C)(C)CC(Nc2nc(Nc3ccc4c(c3)oc(=O)n4CCN3CCOCC3)ncc2C#N)CC1(C)C` [II-169]: the pIC50 was 5.46.

Still in this assay, the particulars now being: T-cell, anti-CD3+CD28 stimulation, 24 hours.
With `COc1cc(Nc2ncc(C#C[Si](C)(C)C)c(NC3CC(C)(C)N(C)C(C)(C)C3)n2)cc(OC)c1` [Compound I-430], the pIC50 is 5.35.

The assay is the same for the next values; noted with them: anti-CD3+CD28 stimulation, 24 hours.
Regarding `Cc1cc(Nc2ncc(F)c(NC3CC(C)(C)N(C)C(C)(C)C3)n2)ccc1-n1cnnn1` [Compound I-397], the pIC50 is 5.70. For `CN1C(C)(C)CC(Nc2nc(Nc3ccc4c(c3)OCCO4)ncc2C#N)CC1(C)C` [II-60], the pIC50 was 6.14. Turning to `COc1ccc(Nc2ncc(Br)c(NC3CC(C)(C)N(C)C(C)(C)C3)n2)cc1C(F)(F)F` [Compound I-272], the pIC50 was 6.08. `Cc1nccc(-c2cccc(Nc3ncc(F)c(NC4CC(C)(C)N(C)C(C)(C)C4)n3)c2)n1` [Compound I-69] showed a pIC50 of 5.62. The same measure, in the same setting: the value for `COc1ccc(Nc2ncc(F)c(NC3CC(C)(C)N(C)C(C)(C)C3)n2)cc1OCC(=O)NC1CC1` [Compound I-412] was 5.18; that for `CN1C(C)(C)CC(Nc2nc(Nc3ccc(F)c(-n4cnnn4)c3)ncc2F)CC1(C)C` [Compound I-466] was 6.62; that for `CN1C(C)(C)CC(Nc2nc(Nc3ccc(F)c(-c4cnn(C)c4)c3)ncc2F)CC1(C)C` [Compound I-182] was 6.17. In the case of `COc1ccc(Nc2ncc(F)c(NC3CC(C)(C)N(C(C)=O)C(C)(C)C3)n2)cc1Cl` [Compound I-213], the pIC50 was 4.71. Take `COc1ccc(Nc2ncc(F)c(NC3CC(C)(C)N(C)C(C)(C)C3)n2)cc1-c1cnn(C)c1` [Compound I-184]: the pIC50 was 5.64. Turning to `CN1CCC(c2ccc(Nc3ncc(F)c(NC4CC(C)(C)N(C)C(C)(C)C4)n3)cc2)CC1` [Compound I-221], the pIC50 is 5.90. `CN1CCN(c2ccc(Nc3ncc(F)c(NC4CCN(CCO)CC4)n3)cc2Cl)CC1` [III-8, N2-[3-Chloro-4-(4-methylpiperazino)]phenyl-5-fluoro-N4-[1-(2-hydroxyethyl)piperidin-4-yl]-2,4-pyrimidinediamine] showed a negative logarithm of the IC50 (pIC50) of 5.58. Take `COc1ccc(Nc2ncc(F)c(NC3CC(C)(C)N(C)C(C)(C)C3)n2)cc1-c1cccnc1` [Compound I-194]: the pIC50 was 6.09. Take `CN1C(C)(C)CC(Nc2nc(Nc3cccc(OC(F)(F)F)c3)ncc2F)C1(C)C` (stereo not shown) [Compound I-284, 5-Fluoro-N2-(3-trifluoromethoxy)phenyl-N4-(1,2,2,5,5-pentamethylpyrrolidin-3-yl)-2,4-pyrimidinediamine]: the negative logarithm of the IC50 (pIC50) was 5.52. Consider `CN1C(C)(C)CC(Nc2nc(Nc3ccc(F)c(C#N)c3)ncc2C(F)(F)F)CC1(C)C` [Compound I-170], for which the pIC50 was 5.58.

For `CN1C(C)(C)CC(Nc2nc(Nc3cnc(N4CCOCC4)c(Cl)c3)ncc2F)CC1(C)C` [Compound I-290], the pIC50 was 6.22. Turning to `COC(=O)C=CN1C(C)(C)CC(Nc2nc(Nc3cc(OC)cc(OC)c3)ncc2F)CC1(C)C` [Compound I-298], the pIC50 was 5.96. Turning to `COc1ccc(Nc2ncc(Br)c(NC3CC(C)(C)N(C)C(C)(C)C3)n2)cc1OC` [Compound I-274], the negative logarithm of the IC50 (pIC50) was 5.92.

For the molecule `CN1C(C)(C)CC(Nc2nc(Nc3cccc(-c4cnn(C)c4)c3)ncc2F)CC1(C)C` [Compound I-143], the pIC50 is 5.85.

As for `Cc1cc(Nc2ncc(F)c(NC3CC(C)(C)N(C)C(C)(C)C3)n2)ccc1-c1cnn(C)c1` [Compound I-151], the pIC50 was 6.20. In turn, `CSc1nnnn1-c1cccc(Nc2ncc(F)c(NC3CC(C)(C)N(C)C(C)(C)C3)n2)c1` [Compound I-399] gave a pIC50 of 7.30. As to `CN1C(C)(C)CC(Nc2nc(Nc3ccc(F)c(F)c3)ncc2F)CC1(C)C` [Compound I-21], the pIC50 is 6.38. Still for that read-out and setting: in the case of `COc1cc(Nc2ncc(F)c(NC3CC(C)(C)N(C)C(C)(C)C3)n2)ccc1-n1nnnc1C` [Compound I-407] it was 5.57.

As for `COCCOc1cc(Nc2ncc(F)c(NC3CC(C)(C)NC(C)(C)C3)n2)cc(OCCOC)c1` [Compound I-394], the negative-log IC50 (pIC50) was 5.53.

Take `CN1CCN(c2ccc(Nc3ncc(Cl)c(NC4CC(C)(C)N(C)C(C)(C)C4)n3)cc2C(F)(F)F)CC1` [Compound I-37]: the pIC50 was 6.29.

On to `COc1ccc(Nc2ncc(F)c(NC3CC(C)(C)N(C)C(C)(C)C3)n2)cc1OC(F)(F)F` [Compound I-343], for which the pIC50 was 6.50. `CN1C(C)(C)CC(Nc2nc(Nc3ccc(N4CCN(S(C)(=O)=O)CC4)c(C(F)(F)F)c3)ncc2F)CC1(C)C` [Compound I-48] gave a pIC50 of 7.41. `COc1ccc(Nc2ncc(F)c(NC3CC(C)(C)N(C)C(C)(C)C3)n2)cc1OCCN(C)C` [Compound I-421]: the pIC50 was 5.33.
